Laboratory results as given in US12453708B2, “Aminonaphthoquinone compounds for treatment and/or prevention of fibrosis diseases” (CALGENT BIOTECHNOLOGY CO., LTD., priority 2015, dated 2025).

Key:
[1] = test system: TGF-β-induced α-SMA expression in WI-38 cells; test: TGF-β-induced α-SMA expression in WI-38 cells (Western blot); assay type: cell-based, human; conditions: WI-38 lung fibroblasts, 0.3, 1, 3 or 10 μM for 30 min before and during incubation with TGF-β (10 ng/mL)
Experimental: (§1) FIGS. 5 (A) and (B) show the effect of L056 on TGF-β-induced α-SMA expression in WI-38 cells. WI-38 lung fibroblasts were incubated with different concentrations of L056 (0.3, 1, 3 or 10 μM) for 30 min before and during incubation for 2 h with TGF-β (10 ng/mL). […] (A), Western blot plot; (B), Quantitative assay of Western blot WI-38 cells, a normal human embryonic lung fibroblast cell line, were obtained from American Type Culture Collection (Manassas, VA). Cells were grown in MEM nutrient mixture, containing 10% FCS, 2 mM L-glutamine, 0.1 mM NEAA, 1 mM sodium pyruvate, 50 U/ml penicillin G, and 100 µg/ml streptomycin, in a humidified 37° C. incubator with 5% CO2 Cells were used between passages 18 and 30 for all experiments. After reaching confluence, cells were seeded onto 6-cm dishes for immunoblotting. Western blot analyses were performed as described previously (Chen B C, Chang Y S, Kang J C, Hsu M J, Sheu J R, Chen T L, et al. Peptidoglycan induces nuclear factor-kappaB activation and cyclooxygenase-2 expression via Ras, Raf-1, and ERK in RAW 264.7 macrophages. J Biol Chem 2004; 279:20889-97). […] The immunoreactivity was detected using enhanced chemiluminescence (ECL) following the manufacturer's instructions. Quantitative data were obtained using a computing densitometer with scientific imaging systems (Kodak, Rochester, NY). […]

[2] = test system: TGF-β-induced CTGF expression in WI-38 cells; test: TGF-β-induced CTGF expression in WI-38 cells (Western blot); assay type: cell-based, human; conditions: WI-38 lung fibroblasts, 0.3, 1, 3 or 10 μM for 30 min before and during 2 h TGF-β (10 ng/mL)
Experimental: as §1, with “FIGS. 1 (A) and” for “FIGS. 5 (A) and”, “on TGF-β-induced CTGF expression in” for “on TGF-β-induced α-SMA expression in”, “of Western blot. WI-38 cells,” for “of Western blot WI-38 cells,”

Question: How did the “TGF-β-induced α-SMA expression” value [1] turn out when `O=C(Nc1ccncc1)c1ccc(CNC2=C(Cl)C(=O)c3ccccc3C2=O)cc1` [Example L056, 4-(((3-chloro-1,4-dioxo-1,4-dihydronaphthalen-2-yl)amino)methyl)-N-(pyridin-4-yl)benzamide] was run?
Answer: significantly inhibited

Question: And the “TGF-β-induced CTGF production” value [2]?
Answer: significantly inhibited
